# Key:
# [1] = test system: foxtail, green; assay: Test D pre-/postemergence herbicide test; assay type: in vivo, Setaria viridis; conditions: for Plant response rating: Foxtail, Green, scale 0 to 100; for Plant response rating, Foxtail, Green: scale 0 to 100 (0 no effect, 100 complete control)
# Description: (§1) Seeds of plant species selected from bluegrass (annual bluegrass, Poa annua), blackgrass (Alopecurus myosuroides), canarygrass (littleseed canarygrass, Phalaris minor), chickweed (common chickweed, Stellaria media), galium (catchweed bedstraw, Galium aparine), bromegrass, downy (downy bromegrass, Bromus tectorum), field poppy (Papaver rhoeas), field violet (Viola arvensis), foxtail, green (green foxtail, Setaria viridis), deadnettle (henbit deadnettle, Lamium amplexicaule), ryegrass, Italian (Italian ryegrass, Lolium multiflorum), kochia (Kochia scoparia), lambsquarters (Chenopodium album), oilseed rape (Brassica napus), pigweed (Amaranthus retroflexus), chamomile (scentless chamomile, Matricaria inodora), Russian thistle (Salsola kali), speedwell (bird's-eye speedwell, Veronica persica), barley, spring (spring barley, Hordeum vulgare), wheat, spring (spring wheat, Triticum aestivum), buckwheat, wild (wild buckwheat, Polygonum convolvulus), mustard, wild (wild mustard, Sinapis arvensis), oat, wild (wild oat, Avena fatua), radish, wild (wild radish, Raphanus raphanistrum), […]), barley, winter (winter barley, Hordeum vulgare), and wheat, winter (winter wheat, Triticum aestivum) were planted into a silt loam soil and treated preemergence with test chemicals formulated in a non-phytotoxic solvent mixture which included a surfactant. At the same time, these species were planted in pots containing Redi-Earth® planting medium (Scotts Company, 14111 Scottslawn Road, Marysville, Ohio 43041) comprising spaghnum peat moss, vermiculite, wetting agent and starter nutrients and treated with postemergence applications of the test chemicals formulated in the same manner. Plants ranged in height from 2 to 18 cm (1- to 4-leaf stage). Treated plants and controls were maintained in a controlled growth environment for 7 to 21 days after which time all species were compared to controls and visually evaluated. Plant response ratings, summarized in Table D, are based on a scale of 0 to 100 where 0 is no effect and 100 is complete control. A dash (-) response means no test result.
# [2] = test system: velvetleaf; assay: Test A pre-/postemergence herbicide test; assay type: in vivo, Abutilon theophrasti; conditions: for Velvetleaf plant response rating: Preemergence, visual rating on 0 to 100 scale (0 no effect, 100 complete control)
# Outline: (§2)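 Formulated compound (non-phytotoxic solvent, surfactant) sprayed pre- onto soil of seeded loam/sand pots or post- onto seedlings at 1–2 leaves; ~10 d greenhouse; 0–100 visual control rating versus untreated.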
# [3] = test system: buckwheat, wild; assay: Test D pre-/postemergence herbicide test; assay type: in vivo, Polygonum convolvulus; conditions: for Plant response rating: Buckwheat, Wild, scale 0 to 100; for Plant response rating, Buckwheat, Wild: scale 0 to 100 (0 no effect, 100 complete control)
# Description: as §1
# [4] = test system: morningglory; assay: Test A pre-/postemergence herbicide test; assay type: in vivo, Ipomoea spp.; conditions: for Morningglory plant response rating: Preemergence, visual rating on 0 to 100 scale (0 no effect, 100 complete control)
# Outline: as §2
# [5] = test system: crabgrass, large; assay: Test A pre-/postemergence herbicide test; assay type: in vivo, Digitaria sanguinalis; conditions: for Crabgrass, Large plant response rating: Preemergence, visual rating on 0 to 100 scale (0 no effect, 100 complete control)
# Outline: as §2
# [6] = test system: rice; assay: Test C flooded paddy test; assay type: in vivo, Oryza sativa; conditions: Flood, scale 0 to 100
# Outline: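 2-leaf stage; flood 3 cm over soil; compound into paddy water; depth held; greenhouse 13–15 d; visual % control vs untreated (0 = none, 100 = complete); "-" = not tested.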
# [7] = test system: blackgrass; assay: Test A postemergence herbicide test; assay type: in vivo, Alopecurus myosuroides; conditions: for Plant response rating, Blackgrass: 125 g ai/ha, 0 to 100 scale, 0 is no effect, 100 is complete control; for Blackgrass plant response rating (0 to 100 scale, 0 is no effect, 100 is complete control): 500 g ai/ha
# Outline: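 Potted in loam soil/sand blend; postemergence application at 1–2 leaf stage (2–10 cm). Greenhouse ~10 d. Visual injury vs untreated, 0–100 scale; 100 = complete control.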
# [8] = test system: ragweed; assay: Test A pre-/postemergence herbicide test; assay type: in vivo, Ambrosia elatior; conditions: for Plant response rating, Ragweed: 0 to 100 scale
# Outline: as §2
# [9] = Postemergence, 500 g ai/ha, 0 to 100 scale (0 no effect, 100 complete control)
# [10] = preemergence, 500 g ai/ha, 0 to 100 scale
# [11] = Postemergence, 125 g ai/ha, 0 to 100 scale, 0 no effect, 100 complete control
# [12] = 125 g ai/ha, visual rating, 0 no effect, 100 complete control, approximately 10 days, preemergence
# [13] = Postemergence, 125 g ai/ha, 0 is no effect, 100 is complete control
# [14] = preemergence, 500 g ai/ha, 0 is no effect and 100 is complete control
Structure (SMILES),"Plant response rating ([1]; Postemergence, 31 g ai/ha)","Plant response rating ([1]; Postemergence, 62 g ai/ha)","Plant response rating ([1]; Postemergence, 125 g ai/ha)","Plant response rating ([1]; Postemergence, 250 g ai/ha)","Plant response rating, Foxtail, Green ([1]; Preemergence, 62 g ai/ha)","Plant response rating, Foxtail, Green ([1]; Preemergence, 31 g ai/ha)","Plant response rating ([1]; Preemergence, 125 g ai/ha)","Plant response rating ([1]; Preemergence, 250 g ai/ha)","Plant response rating, Velvetleaf [2, 9]",Velvetleaf plant response rating ([2]; 125 g ai/ha),"Plant response rating, Velvetleaf [2, 10]","Plant response rating ([3]; Postemergence, 31 g ai/ha)","Plant response rating ([3]; Postemergence, 62 g ai/ha)","Plant response rating ([3]; Postemergence, 125 g ai/ha)","Plant response rating ([3]; Postemergence, 250 g ai/ha)","Plant response rating, Buckwheat, Wild ([3]; Preemergence, 62 g ai/ha)","Plant response rating, Buckwheat, Wild ([3]; Preemergence, 31 g ai/ha)","Plant response rating ([3]; Preemergence, 125 g ai/ha)","Plant response rating ([3]; Preemergence, 250 g ai/ha)","Plant response rating, Morningglory [4, 9]",also measured
O=C1NCC(c2ccc(F)c(F)c2)C1C(=O)Nc1ccccc1C(F)(F)F (racemic) [Compound 6],0,0,0,20,0,0,0,10,10,0,0,0,0,0,10,0,0,0,0,0,"Plant response rating ([1]; Postemergence, 16 g ai/ha): 0; Plant response rating, Foxtail, Green ([1]; Preemergence, 16 g ai/ha): 0; Plant response rating ([3]; Postemergence, 16 g ai/ha): 0; Plant response rating, Buckwheat, Wild ([3]; Preemergence, 16 g ai/ha): 0; Morningglory plant response rating ([4]; 125 g ai/ha): 0; Plant response rating, Morningglory [4, 10]: 0; Plant response rating, Crabgrass, Large [5, 11]: 60; Plant response rating, Crabgrass, Large [5, 9]: 80; Crabgrass, Large plant response rating ([5]; 125 g ai/ha): 80; Plant response rating, Crabgrass, Large [5, 10]: 90"
O=C1NCC(c2ccc(F)c(C(F)(F)F)c2)C1C(=O)Nc1cccc(F)c1F (racemic) [Compound 77],,,,,80,15,70,85,40,0,0,,,,,75,0,55,55,30,"Plant response rating, Rice ([6]; 250 g ai/ha): 0; Plant response rating, Rice ([6]; 500 g ai/ha): 0; Plant response rating, Rice ([6]; 1000 g ai/ha): 20; Plant response rating, Rice ([6]; 2000 g ai/ha): 60; Plant response rating, Velvetleaf [2, 11]: 20; Plant response rating, Morningglory [4, 11]: 0; Morningglory plant response rating ([4]; 125 g ai/ha): 20; Plant response rating, Morningglory [4, 10]: 60; Plant response rating, Crabgrass, Large [5, 11]: 80; Plant response rating, Crabgrass, Large [5, 9]: 80; Crabgrass, Large plant response rating ([5]; 125 g ai/ha): 90; Plant response rating, Crabgrass, Large [5, 10]: 90"
O=C1NCC(c2ccc(C(F)(F)F)cc2)C1C(=O)Nc1cccc(F)c1F (racemic) [Compound 202],60,65,70,70,90,90,98,95,,,,0,0,0,10,10,0,10,15,,"Plant response rating, Blackgrass [7]: 50; Blackgrass plant response rating (0 to 100 scale, 0 is no effect, 100 is complete control) [7]: 50; Plant response rating, Ragweed [8, 12]: 50; Plant response rating, Ragweed [8, 13]: 30; Ragweed plant response rating (0 to 100 scale, 0 is no effect, 100 is complete control) ([8]; Postemergence, 500 g ai/ha): 50; Plant response rating, Ragweed [8, 14]: 90"
O=C1NCC(c2cc(F)c(F)cc2F)C1C(=O)Nc1cccc(F)c1F (centres unmarked) [Compound 50],0,0,0,,50,0,40,,0,0,0,10,10,10,,0,0,,,0,"Plant response rating ([1]; Postemergence, 16 g ai/ha): 0; Plant response rating, Foxtail, Green ([1]; Preemergence, 16 g ai/ha): 0; Plant response rating, Velvetleaf [2, 11]: 0; Plant response rating ([3]; Postemergence, 16 g ai/ha): 10; Plant response rating, Buckwheat, Wild ([3]; Preemergence, 16 g ai/ha): 0; Plant response rating, Morningglory [4, 11]: 0; Morningglory plant response rating ([4]; 125 g ai/ha): 0; Plant response rating, Morningglory [4, 10]: 0; Plant response rating, Crabgrass, Large [5, 11]: 80; Plant response rating, Crabgrass, Large [5, 9]: 80; Crabgrass, Large plant response rating ([5]; 125 g ai/ha): 90; Plant response rating, Crabgrass, Large [5, 10]: 90"
O=C1NCC(c2ccc(C(F)(F)F)cc2)C1C(=O)Nc1ccccc1F (centres unmarked) [Compound 231],10,65,70,70,80,45,,98,,,,0,0,0,0,0,0,,10,,"Plant response rating, Foxtail, Green ([1]; Preemergence, 125 g ai/ha): 95; Plant response rating, Blackgrass [7]: 40; Blackgrass plant response rating (0 to 100 scale, 0 is no effect, 100 is complete control) [7]: 60; Plant response rating, Buckwheat, Wild ([3]; Preemergence, 125 g ai/ha): 0; Plant response rating, Ragweed [8, 12]: 70; Plant response rating, Ragweed [8, 13]: 20; Ragweed plant response rating (0 to 100 scale, 0 is no effect, 100 is complete control) ([8]; Postemergence, 500 g ai/ha): 50; Plant response rating, Ragweed [8, 14]: 90"

# — patent US10294202B2, “Pyrrolidinones as herbicides” (FMC Corporation, priority 2013, dated 2019)
